In patent US6710075B2, “Therapeutic compounds and methods” (The Government of the State of Sarawak, Malaysia, priority 2000, dated 2004):

Key:
Assay type in all cases: cell-based
[1] = system: panel of cell lines derived from a variety of human tumour types; experiment: Cytostatic activity against a panel of human tumour cell lines (summary); settings: 72 h, range over the cell line panel, 3 days, read-out: GI50 values in nearly all cell lines tested
Description: (b) Compound A was assessed for cytotoxic and cytostatic activity against a panel of cell lines derived from a variety of human tumour types in addition to THP-1 and A549 cells (Table 5). These included K562 leukemic cells (Lozzio and Lozzio, 1975, Blood 45:321-34), PC3 prostate tumour cells (Kaighn et al., 1979, Invest. Urol. 17:16-23) and SF268 glioblastoma cells (Westphal et al, 1985, Biochem. Biophys. Res. Commun., 132:284-9). […] However, the cytotoxic potency of Compound A increased dramatically after 6 days of culture for the K562, A549 and SF268 cells.

THP-1 cells = experiment: Cell death as loss of membrane integrity, YOYO-1 uptake; settings: Homo sapiens, 72 h; THP-1 cells, 3 days, YOYO-1 uptake; read-out: LC50 (the source's name)
Excerpt: (§1) (a) Table 8 compares the cytostatic and cytotoxic effects of Compound A to three previously identified 1H-cyclopenta[b]benzofuran lignans that lack the dioxanyloxy group at the C6-position. The reference compounds are: Rocaglaol (Reference Compound 1) (Ohse et al., J Nat Prod, 1996, 59(7):650-52); 4′-Demethoxy-3′,4′-methylenedioxyrocaglaol (Reference Compound 2) and Methyl 4′-demethoxy-3′,4′-methylenedioxyrocaglate (Reference Compound 3) (Lee et al., Chem Biol Interact, 1998, 115(3):215-28).

A549 cells = experiment: as above; settings: Homo sapiens, 72 h; A549 cells, 3 days, YOYO-1 uptake; read-out: LC50 (the source's name)
Excerpt: as §1

SF-268 = experiment: NCI in vitro anticancer drug discovery screen (sulforhodamine B); settings: Homo sapiens, SF-268, brain, 48 hr
Description: (§2) (c) Testing of Compound A against a much larger cell line panel in the NCI in vitro anticancer screen (Table 7) confirmed the results described above. […] Consistent with the data in Table 5 the cytotoxic effects measured after 2 days of culture were more varied with LC50 values ranging from 10 nM for COLO-205 colon tumour cells to ˜90 μM for 786-0 renal tumour cells.

MDA-MB-231/ATCC = experiment: as above; settings: Homo sapiens, breast, 48 hr
Description: as §2

M14 = experiment: as above; settings: Homo sapiens, M14, melanoma, 48 hr
Description: as §2

UACC-62 = experiment: as above; settings: Homo sapiens, UACC-62, melanoma, 48 hr
Description: as §2

MCF7 = experiment: as above; settings: Homo sapiens, MCF7, breast, 48 hr
Description: as §2

COLO-205 = experiment: as above; settings: Homo sapiens, COLO-205, colon, 48 hr
Description: as §2

MDA-MB-435 = experiment: as above; settings: Homo sapiens, MDA-MB-435, breast, 48 hr
Description: as §2

EKVX = experiment: as above; settings: Homo sapiens, lung, 48 hr
Description: as §2

NCI-11522 = experiment: as above; settings: Homo sapiens, NCI-11522, lung, 48 hr
Description: as §2

SNB-75 = experiment: as above; settings: Homo sapiens, SNB-75, brain, 48 hr
Description: as §2

OVCAR-4 = experiment: as above; settings: Homo sapiens, OVCAR-4, ovarian, 48 hr
Description: as §2

IGROVI = experiment: as above; settings: Homo sapiens, ovarian, 48 hr
Description: as §2

RXF 393 = experiment: as above; settings: Homo sapiens, RXF 393, renal, 48 hr
Description: as §2

ACHN = experiment: as above; settings: Homo sapiens, renal, 48 hr
Description: as §2

BT-549 = experiment: as above; settings: Homo sapiens, BT-549, breast, 48 hr
Description: as §2

NCI-H460 = experiment: as above; settings: Homo sapiens, NCI-H460, lung, 48 hr
Description: as §2

MALME-3M = experiment: as above; settings: Homo sapiens, melanoma, 48 hr
Description: as §2

OVCAR-8 = experiment: as above; settings: Homo sapiens, OVCAR-8, ovarian, 48 hr
Description: as §2

8K-MEL-5 = experiment: as above; settings: Homo sapiens, 8K-MEL-5, melanoma, 48 hr
Description: as §2

SF-295 = experiment: as above; settings: Homo sapiens, SF-295, brain, 48 hr
Description: as §2

MDA-N = experiment: as above; settings: Homo sapiens, breast, 48 hr
Description: as §2

LOX IMV1 = experiment: as above; settings: Homo sapiens, LOX IMV1, melanoma, 48 hr
Description: as §2

SF-539 = experiment: as above; settings: Homo sapiens, SF-539, brain, 48 hr
Description: as §2

NCI-H226 = experiment: as above; settings: Homo sapiens, NCI-H226, lung, 48 hr
Description: as §2

[2] = read-out: LC50 (the source's name)

SMILES: COC(=O)[C@H]1[C@@H](O)[C@@]2(O)c3c(OC)cc(OC4OC(C(O)CO)COC4OC)cc3O[C@@]2(c2ccc(OC)cc2)[C@@H]1c1ccccc1 (single isomer, unassigned) [Compound A]
- GI50 [1]: 1 to 7 nM
- CC50 (THP-1 cells): 15 nM
- CC50 (A549 cells): 514 nM
- GI50 (SF-268): < 10 nM
- CC50 (SF-268; [2]): 1000 nM
- GI50 (MDA-MB-231/ATCC): < 10 nM
- CC50 (MDA-MB-231/ATCC; [2]): 25400 nM
- GI50 (M14): < 10 nM
- CC50 (M14; [2]): 51 nM
- GI50 (UACC-62): < 10 nM
- CC50 (UACC-62; [2]): 30 nM
- GI50 (MCF7): < 10 nM
- CC50 (MCF7; [2]): 1000 nM
- GI50 (COLO-205): < 10 nM
- CC50 (COLO-205; [2]): 10 nM
- GI50 (MDA-MB-435): < 10 nM
- CC50 (MDA-MB-435; [2]): 45 nM
- GI50 (EKVX): < 10 nM
- CC50 (EKVX; [2]): 23 nM
- GI50 (NCI-11522): < 10 nM
- CC50 (NCI-11522; [2]): 2400 nM
- GI50 (SNB-75): < 10 nM
- CC50 (SNB-75; [2]): 54 nM
- GI50 (OVCAR-4): < 10 nM
- CC50 (OVCAR-4; [2]): 11 nM
- GI50 (IGROVI): < 10 nM
- CC50 (IGROVI; [2]): 2600 nM
- GI50 (RXF 393): < 10 nM
- CC50 (RXF 393; [2]): 1640 nM
- GI50 (ACHN): < 10 nM
- CC50 (ACHN; [2]): 31600 nM
- GI50 (BT-549): < 10 nM
- CC50 (BT-549; [2]): 32700 nM
- GI50 (NCI-H460): < 10 nM
- CC50 (NCI-H460; [2]): 38000 nM
- GI50 (MALME-3M): < 10 nM
- CC50 (MALME-3M; [2]): 24000 nM
- GI50 (OVCAR-8): < 10 nM
- CC50 (OVCAR-8; [2]): 21900 nM
- GI50 (8K-MEL-5): < 10 nM
- CC50 (8K-MEL-5; [2]): 67 nM
- GI50 (SF-295): < 10 nM
- CC50 (SF-295; [2]): 1230 nM
- GI50 (MDA-N): < 10 nM
- CC50 (MDA-N; [2]): 543 nM
- GI50 (LOX IMV1): < 10 nM
- CC50 (LOX IMV1; [2]): 1000 nM
- GI50 (SF-539): < 10 nM
- CC50 (SF-539; [2]): 1100 nM
- GI50 (NCI-H226): < 10 nM
- CC50 (NCI-H226; [2]): 193 nM
